Experimental data reported in article PMC6973020, “Quinoline‐Conjugated Ruthenacarboranes: Toward Hybrid Drugs with a Dual Mode of Action” (Chemmedchem, 2019).

Tests used:
[1] = tested on: microtubule‐associated protein light chain 3B (LC3B); experiment: Western blot analysis of LC3B, LN229; assay type: cell-based, human; conditions: LN229, IC50 dose
Description: mouse microglial cell line BV‐2 was a kind gift from Dr. Irena Lavrnja, Institute for Biological Research “Siniša Stanković” (University of Belgrade). Cells were routinely cultivated in HEPES‐buffered RPMI‐ […]
FCS, 2 mM L‐glutamine, 0.01% sodium pyruvate and antibiotics, at 37 °C in a humidified atmosphere with 5% CO2. Peritoneal resident macrophages (Mph) were collected from C57BL/6 mice, obtained from the animal facility at the Institute for Biological Research “Siniša Stanković” (University of Belgrade), via peritoneal lavage with ice‐cold PBS. Cells were counted and seeded in 96‐well plates and incubated overnight, as described above. Before treatment, non‐adherent cells were removed.
Isolation of cells from animals were performed in accordance to local guidelines and approved by the local Institutional Animal Care and Use Committee (IACUC).
Staining Protocols for Flow Cytometric Analysis. For AnnV/PI, AO and ApoStat staining, cells were treated with an IC50 dose of 3 or 4 for 72 h, then detached with trypsin and washed with PBS. […] Finally, cells were washed in PBS, resuspended in PBS (or AnnV‐binding buffer for AnnV/PI), and analysed. […] Cells were then washed, trypsinised, dissolved in PBS and analysed by CyFlow® Space Partec using the PartecFloMax® software (Partec GmbH, Münster, Germany).
Staining Protocols for Fluorescence Microscopy. […]

[2] = tested on: LN229 cells; experiment: AO staining (acidic vesicles), LN229; assay type: cell-based, human; conditions: LN229, IC50 dose, 72 h, compared with cells treated with an IC50 dose of 3
Description: Flow cytometry. For gaining better insights into the mechanisms of action of the ruthenium complexes, MCF‐7 and LN229 cells incubated with an IC50 dose of 3 or 4, were analyzed via flow cytometry. Several staining protocols were carried out in parallel, in independent experiments: i) AnnV/PI for the detection of apoptotic cell death, ii) AO for the detection of acidic vacuoles, iii) ApoStat for checking caspase activation, iv) CFSE for detecting interference with cellular proliferation, and v) DAPI for the detection of morphological signs of apoptosis. Untreated cells or cells treated only with BSA (control) were also measured, as reference for BSA‐free and BSA‐containing drug formulations, respectively. […] Channels FL1 (green emission), FL2 (orange emission) and/or FL3 (dark red emission) were used for fluorescence detection, according to the specific staining agent. Sideward Scatter (SSC) for MCF‐7 cells treated with 4 or BSA−4 was also analyzed, with respect to the control, for detection of shifts of cell granularity. […]
Staining Protocols for Flow Cytometric Analysis. […] Finally, cells were washed in PBS, resuspended in PBS (or AnnV‐binding buffer for AnnV/PI), and analysed. […] Cells were then washed, trypsinised, dissolved in PBS and analysed by CyFlow® Space Partec using the PartecFloMax® software (Partec GmbH, Münster, Germany). […]

closo ‐[3‐(η^6‐p‐Cymene)‐1‐(quinolin‐8‐yl‐acetate)‐3,1,2‐RuC2B9H10] [Compound 4]
expression of LC3B (western blot) [1]: significantly diminished
number of acidic vesicles (AO staining) [2]: significantly lower
